Data published in patent US4261892A, “2,4,6-Tris-(substituted-amino)-s-triazines” (American Cyanamid Company, priority 1979, dated 1981).
Like-named read-outs stand apart in the source and are kept apart here.

System: Adjuvant Arthritis In Rats
Test: Adjuvant-induced arthritis in rats (chronic inflammation accompanied by joint destruction)
Format: in vivo, Royal Hart, Wistar strain rats
Settings: for inhibition in vivo at 25 mg/kg / inhibition in vivo at 50 mg/kg / inhibition in vivo at 100 mg/kg / inhibition in vivo at 18.8 mg/kg / inhibition in vivo at 37.5 mg/kg / inhibition in vivo at 75 mg/kg / inhibition in vivo at 150 mg/kg: Rattus norvegicus
Experimental: Groups of three Royal Hart, Wistar strain rats weighing 200±10 grams each were injected intradermally in the right hind paw with Freund's adjuvant (dried human tubercle bacilli in a mineral oil vehicle) at a dose of 2 mg./kg. of body weight. […] On the 14th and 21st day post challenge the diameter of the injected paw (primary lesion) was measured by micrometer caliper. The volume of inflamed paws were estimated from these measurements and the results are expressed as percent inhibition of swelling as compared to controls. At the same time, the other inflamed sites, such as ears, paws and tail (secondary lesions) were observed and each rat was graded as to degree of inflammation and swelling present. The grading is based on a scale of 0 to 24 where 0 represents a complete absence of induced arthritic nodules and 24 represents the maximum degree of inflammation. The mean grade for each treated group is calculated and the effects of each compound are expressed as percent inhibition of the control grade.

[1] = po, 336 h, read-out: % Inhibition of Swelling (primary lesion) Day 14
[2] = po, 504 h, read-out: % Inhibition of Swelling (primary lesion) Day 21
[3] = oral 25 mg./kg. once daily days 0-13, Day 14
[4] = oral 25 mg./kg. once daily days 0-13, Day 21
[5] = oral 50 mg./kg. once daily days 0-13, Day 14
[6] = oral 50 mg./kg. once daily days 0-13, Day 21
[7] = oral 50 mg./kg. once daily days 0-13
[8] = oral 100 mg./kg. once daily days 0-13, Day 14
[9] = oral 100 mg./kg. once daily days 0-13, Day 21
[10] = 336 h, oral 50 mg./kg. once daily days 0-13, Day 14, read-out: % Inhibition of Swelling (primary lesion) Day 14
[11] = 504 h, oral 50 mg./kg. once daily days 0-13, Day 21, read-out: % Inhibition of Swelling (primary lesion) Day 21
[12] = oral 18.8 mg./kg. once daily days 0-13, Day 14
[13] = oral 18.8 mg./kg. once daily days 0-13, Day 21
[14] = oral 37.5 mg./kg. once daily days 0-13, Day 14
[15] = oral 37.5 mg./kg. once daily days 0-13, Day 21
[16] = oral 75 mg./kg. once daily days 0-13, Day 14
[17] = oral 75 mg./kg. once daily days 0-13, Day 21
[18] = oral 150 mg./kg. once daily days 0-13, Day 14
[19] = oral 150 mg./kg. once daily days 0-13, Day 21

CC(C)(C)C(C)(C)Nc1nc(NC(C)(C)C(C)(C)C)nc(N2CC3CCC(CC3)C2)n1 [3-{4,6-bis[(1,1,2,2-tetramethylpropyl)amino]-s-triazin-2-yl}-3-azabicyclo[3.2.2]nonane]
inhibition in vivo at 25 mg/kg [1]: 42%
inhibition in vivo at 50 mg/kg [1]: 58%
inhibition in vivo at 100 mg/kg [1]: 74%
inhibition in vivo at 25 mg/kg [2]: 24%
inhibition in vivo at 50 mg/kg [2]: 34%
inhibition in vivo at 100 mg/kg [2]: 41%
% Inhibition of Control Grade (secondary lesion) Day 14 [3]: 44%
Mean Weight Gain (grams) Day 14 [3]: 74 grams
% Inhibition of Control Grade (secondary lesion) Day 21 [4]: 12%
Mean Weight Gain (grams) Day 21 [4]: 70 grams
Dead/Treated at 21 Days (oral 25 mg./kg. once daily days 0-13): 1/18
% Inhibition of Control Grade (secondary lesion) Day 14 [5]: 48%
Mean Weight Gain (grams) Day 14 [5]: 56 grams
% Inhibition of Control Grade (secondary lesion) Day 21 [6]: 20%
Mean Weight Gain (grams) Day 21 [6]: 58 grams
Dead/Treated at 21 Days [7]: 0/36
% Inhibition of Control Grade (secondary lesion) Day 14 [8]: 69%
Mean Weight Gain (grams) Day 14 [8]: 73 grams
% Inhibition of Control Grade (secondary lesion) Day 21 [9]: 45%
Mean Weight Gain (grams) Day 21 [9]: 62 grams
Dead/Treated at 21 Days (oral 100 mg./kg. once daily days 0-13): 1/18

CC(C)(C)C(C)(C)Nc1nc(NC2C3CC4CC(C3)CC2C4)nc(NC(C)(C)C(C)(C)C)n1 (stereo not shown) [N^2-2-adamantyl-N^4,N^6-bis(1,1,2,2-tetramethylpropyl)melamine]
inhibition in vivo at 50 mg/kg [10]: 79%
inhibition in vivo at 50 mg/kg [11]: 83%
Mean Weight Gain (grams) Day 14 [5]: 148 grams
Mean Weight Gain (grams) Day 21 [6]: 181 grams
Dead/Treated at 21 Days [7]: 1/3

CCCCNc1nc(N2CC3CCC(CC3)C2)nc(N2CC3CCC(CC3)C2)n1 [3,3'-(6-butylamino-s-triazin-2,4-diyl)bis-3-azabicyclo[3.2.2]nonane]
inhibition in vivo at 50 mg/kg [1]: 46%
inhibition in vivo at 50 mg/kg [2]: 32%
Mean Weight Gain (grams) Day 14 [5]: 82 grams
Mean Weight Gain (grams) Day 21 [6]: 107 grams
Dead/Treated at 21 Days [7]: 2/12

CC(C)(C)CC(C)(C)Nc1nc(NC(C)(C)C(C)(C)C)nc(N2CC3CCC(CC3)C2)n1 [3-[4-(1,1,3,3-tetramethylbutylamino)-6-[(1,1,2,2-tetramethylpropyl)amino]-s-triazin-2-yl]-3-azabicyclo[3.2.2]nonane]
inhibition in vivo at 50 mg/kg [1]: 74%
inhibition in vivo at 50 mg/kg [2]: 42%
Mean Weight Gain (grams) Day 14 [5]: 66 grams
Mean Weight Gain (grams) Day 21 [6]: 91 grams
Dead/Treated at 21 Days [7]: 0/12

CC(C)(C)CC(C)(C)Nc1nc(Nc2ccc(F)cc2)nc(N2CC3CCC(CC3)C2)n1 [3-[4-p-fluoroanilino-6-(1,1,3,3-tetramethylbutylamino)-s-triazin-2-yl]-3-azabicyclo[3.2.2]nonane]
inhibition in vivo at 50 mg/kg [1]: 32%
inhibition in vivo at 50 mg/kg [2]: 18%
Mean Weight Gain (grams) Day 14 [5]: 68 grams
Mean Weight Gain (grams) Day 21 [6]: 50 grams
Dead/Treated at 21 Days [7]: 1/18

CC(C)(C)CC(C)(C)Nc1nc(NC(C)(C)C)nc(N2CC3CCC(CC3)C2)n1 [2-(tert-butylamino)-4-(1,1,3,3-tetramethylbutylamino)-6-(3-azabicyclo[3.2.2]nonyl)-s-triazine]
inhibition in vivo at 50 mg/kg [1]: 42%
inhibition in vivo at 50 mg/kg [2]: 14%
Mean Weight Gain (grams) Day 14 [5]: 85 grams
Mean Weight Gain (grams) Day 21 [6]: 87 grams
Dead/Treated at 21 Days [7]: 3/18

CC(C)(C)C(C)(C)Nc1nc(NC23CC4CC(CC(C4)C2)C3)nc(NC(C)(C)C(C)(C)C)n1 [N^2-1-adamantyl-N^4,N^6-bis(1,1,2,2-tetramethylpropyl)melamine]
inhibition in vivo at 50 mg/kg [10]: 47%
inhibition in vivo at 50 mg/kg [11]: 17%
Mean Weight Gain (grams) Day 14 [5]: 94 grams
Mean Weight Gain (grams) Day 21 [6]: 89 grams
Dead/Treated at 21 Days [7]: 1/12

CC(C)(C)Nc1nc(NC(C)(C)C)nc(N2CC3CCC(CC3)C2)n1 [3-[4,6-bis(tert-butylamino)-s-triazin-2-yl]-3-azabicyclo[3.2.2]nonane]
inhibition in vivo at 50 mg/kg [1]: 61%
inhibition in vivo at 50 mg/kg [2]: 22%
Mean Weight Gain (grams) Day 14 [5]: 87 grams
Mean Weight Gain (grams) Day 21 [6]: 69 grams
Dead/Treated at 21 Days [7]: 1/9

CCCCC1C(=O)N(c2ccccc2)N(c2ccccc2)C1=O [Phenylbutazone]
inhibition in vivo at 18.8 mg/kg (336 h, oral 18.8 mg./kg. once daily days 0-13, Day 14, read-out: % Inhibition of Swelling (primary lesion) Day 14): 31%
inhibition in vivo at 37.5 mg/kg (336 h, oral 37.5 mg./kg. once daily days 0-13, Day 14, read-out: % Inhibition of Swelling (primary lesion) Day 14): 56%
inhibition in vivo at 75 mg/kg (336 h, oral 75 mg./kg. once daily days 0-13, Day 14, read-out: % Inhibition of Swelling (primary lesion) Day 14): 62%
inhibition in vivo at 150 mg/kg (336 h, oral 150 mg./kg. once daily days 0-13, Day 14, read-out: % Inhibition of Swelling (primary lesion) Day 14): 75%
inhibition in vivo at 18.8 mg/kg (504 h, oral 18.8 mg./kg. once daily days 0-13, Day 21, read-out: % Inhibition of Swelling (primary lesion) Day 21): 7%
inhibition in vivo at 37.5 mg/kg (504 h, oral 37.5 mg./kg. once daily days 0-13, Day 21, read-out: % Inhibition of Swelling (primary lesion) Day 21): 14%
inhibition in vivo at 75 mg/kg (504 h, oral 75 mg./kg. once daily days 0-13, Day 21, read-out: % Inhibition of Swelling (primary lesion) Day 21): 28%
inhibition in vivo at 150 mg/kg (504 h, oral 150 mg./kg. once daily days 0-13, Day 21, read-out: % Inhibition of Swelling (primary lesion) Day 21): 44%
% Inhibition of Control Grade (secondary lesion) Day 14 [12]: 4%
Mean Weight Gain (grams) Day 14 [12]: 50 grams
% Inhibition of Control Grade (secondary lesion) Day 21 [13]: 8%
Mean Weight Gain (grams) Day 21 [13]: 45 grams
Dead/Treated at 21 Days (oral 18.8 mg./kg. once daily days 0-13): 2/21
% Inhibition of Control Grade (secondary lesion) Day 14 [14]: 18%
Mean Weight Gain (grams) Day 14 [14]: 53 grams
% Inhibition of Control Grade (secondary lesion) Day 21 [15]: 13%
Mean Weight Gain (grams) Day 21 [15]: 53 grams
Dead/Treated at 21 Days (oral 37.5 mg./kg. once daily days 0-13): 5/39
% Inhibition of Control Grade (secondary lesion) Day 14 [16]: 27%
Mean Weight Gain (grams) Day 14 [16]: 51 grams
% Inhibition of Control Grade (secondary lesion) Day 21 [17]: 15%
Mean Weight Gain (grams) Day 21 [17]: 50 grams
Dead/Treated at 21 Days (oral 75 mg./kg. once daily days 0-13): 2/39
% Inhibition of Control Grade (secondary lesion) Day 14 [18]: 54%
Mean Weight Gain (grams) Day 14 [18]: 40 grams
% Inhibition of Control Grade (secondary lesion) Day 21 [19]: 31%
Mean Weight Gain (grams) Day 21 [19]: 50 grams
Dead/Treated at 21 Days (oral 150 mg./kg. once daily days 0-13): 2/27

CC(C)(C)CC(C)(C)Nc1nc(NC(C)(C)CC(C)(C)C)nc(N2CC3CCC(CC3)C2)n1 [3-[4,6-bis(1,1,3,3-tetramethylbutylamino)-s-triazin-2-yl]-3-azabicyclo[3.2.2]nonane]
inhibition in vivo at 50 mg/kg [1]: 59%
inhibition in vivo at 50 mg/kg [2]: 23%
Mean Weight Gain (grams) Day 14 [5]: 76 grams
Mean Weight Gain (grams) Day 21 [6]: 67 grams
Dead/Treated at 21 Days [7]: 2/18

CC(C)(C)C(C)(C)Nc1nc(N[C@H]2C[C@@H]3CC[C@H]2C3)nc(NC(C)(C)C(C)(C)C)n1 (relative stereo) [N^2-(exo[2.2.1]norbornyl)-N^4, N^6-bis(1,1,2,2-tetramethylpropyl)melamine]
inhibition in vivo at 50 mg/kg [10]: 49%
inhibition in vivo at 50 mg/kg [11]: 24%
Mean Weight Gain (grams) Day 14 [5]: 97 grams
Mean Weight Gain (grams) Day 21 [6]: 93 grams
Dead/Treated at 21 Days [7]: 0/3
